In PubChem BioAssay (NCI):
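GI50 marks 50% less growth. TGI: concentration producing complete growth inhibition.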

Tests used:
Experiment in all cases: NCI-60 cell line screen, 384-well format
HOP-62 NSCLC = test system: HOP-62 NSCLC
SF-295 CNS = test system: SF-295 CNS
SN12C renal = test system: SN12C renal
UO-31 renal = test system: UO-31 renal
MALME-3M melanoma = test system: MALME-3M melanoma
EKVX NSCLC = test system: EKVX NSCLC
IGROV1 ovarian = test system: IGROV1 ovarian
MOLT-4 leukemia = test system: MOLT-4 leukemia
MDA-MB-468 breast = test system: MDA-MB-468 breast
A498 renal = test system: A498 renal
MDA-MB-435 melanoma = test system: MDA-MB-435 melanoma
BT-549 breast = test system: BT-549 breast
HS 578T breast = test system: HS 578T breast
PC-3 prostate = test system: PC-3 prostate
RPMI-8226 leukemia = test system: RPMI-8226 leukemia
HCT-15 colon = test system: HCT-15 colon
SW-620 colon = test system: SW-620 colon
NCI-H226 lung = test system: NCI-H226 lung
LOX IMVI melanoma = test system: LOX IMVI melanoma
HOP-92 NSCLC = test system: HOP-92 NSCLC
UACC-257 melanoma = test system: UACC-257 melanoma
HCT-116 colon = test system: HCT-116 colon
TK-10 renal = test system: TK-10 renal
A549 NSCLC = test system: A549 NSCLC
SK-MEL-28 melanoma = test system: SK-MEL-28 melanoma
SNB-19 CNS = test system: SNB-19 CNS
SF-268 CNS = test system: SF-268 CNS
DU-145 prostate = test system: DU-145 prostate
OVCAR-8 ovarian = test system: OVCAR-8 ovarian
MDA-MB-231 breast = test system: MDA-MB-231 breast
786-0 renal = test system: 786-0 renal
SF-539 CNS = test system: SF-539 CNS
K-562 leukemia = test system: K-562 leukemia
NCI-H522 lung = test system: NCI-H522 lung
KM12 colon = test system: KM12 colon
MCF7 breast = test system: MCF7 breast
HL-60(TB) leukemia = test system: HL-60(TB) leukemia
OVCAR-4 ovarian = test system: OVCAR-4 ovarian
RXF 393 renal = test system: RXF 393 renal
T-47D breast = test system: T-47D breast
UACC-62 melanoma = test system: UACC-62 melanoma
OVCAR-5 ovarian = test system: OVCAR-5 ovarian
U251 glioblastoma = test system: U251 glioblastoma
CCRF-CEM leukemia = test system: CCRF-CEM leukemia
SK-MEL-2 melanoma = test system: SK-MEL-2 melanoma
NCI-H23 lung = test system: NCI-H23 lung
ACHN renal = test system: ACHN renal
CAKI-1 renal = test system: CAKI-1 renal
NCI/ADR-RES ovarian = test system: NCI/ADR-RES ovarian
SK-OV-3 ovarian = test system: SK-OV-3 ovarian
HT29 colon = test system: HT29 colon
NCI-H322M lung = test system: NCI-H322M lung
SNB-75 CNS = test system: SNB-75 CNS
OVCAR-3 ovarian = test system: OVCAR-3 ovarian
M14 melanoma = test system: M14 melanoma

O=c1[nH]c(=O)n(C2CC(O)C(CO)O2)cc1C(F)(F)F (stereo not given)
GI50 (HOP-62 NSCLC): 2.27 µM
TGI (HOP-62 NSCLC): 11 µM
GI50 (SF-295 CNS): 3.21 µM
TGI (SF-295 CNS): 12.3 µM
GI50 (SN12C renal): 1.9 µM
TGI (SN12C renal): 9 µM
GI50 (UO-31 renal): 2.55 µM
TGI (UO-31 renal): 14.2 µM
GI50 (MALME-3M melanoma): 1.38 µM
TGI (MALME-3M melanoma): > 100 µM
GI50 (EKVX NSCLC): > 100 µM
TGI (EKVX NSCLC): > 100 µM
GI50 (IGROV1 ovarian): 13 µM
TGI (IGROV1 ovarian): > 100 µM
GI50 (MOLT-4 leukemia): 0.197 µM
TGI (MOLT-4 leukemia): 0.459 µM
GI50 (MDA-MB-468 breast): 2.61 µM
TGI (MDA-MB-468 breast): 19.5 µM
GI50 (A498 renal): 7.94 µM
TGI (A498 renal): > 100 µM
GI50 (MDA-MB-435 melanoma): 8.93 µM
TGI (MDA-MB-435 melanoma): > 100 µM
GI50 (BT-549 breast): 0.763 µM
TGI (BT-549 breast): 9.01 µM
GI50 (HS 578T breast): 25.4 µM
TGI (HS 578T breast): > 100 µM
GI50 (PC-3 prostate): 80.1 µM
TGI (PC-3 prostate): > 100 µM
GI50 (RPMI-8226 leukemia): 0.199 µM
TGI (RPMI-8226 leukemia): 11.5 µM
GI50 (HCT-15 colon): 4.18 µM
TGI (HCT-15 colon): > 100 µM
GI50 (SW-620 colon): 1.24 µM
TGI (SW-620 colon): > 100 µM
GI50 (NCI-H226 lung): 15.3 µM
TGI (NCI-H226 lung): 61.2 µM
GI50 (LOX IMVI melanoma): 0.813 µM
TGI (LOX IMVI melanoma): 9.83 µM
GI50 (HOP-92 NSCLC): 50.8 µM
TGI (HOP-92 NSCLC): > 100 µM
GI50 (UACC-257 melanoma): 12.8 µM
TGI (UACC-257 melanoma): > 100 µM
GI50 (HCT-116 colon): 0.698 µM
TGI (HCT-116 colon): > 100 µM
GI50 (TK-10 renal): 14.6 µM
TGI (TK-10 renal): > 100 µM
GI50 (A549 NSCLC): 2.43 µM
TGI (A549 NSCLC): > 100 µM
GI50 (SK-MEL-28 melanoma): 6.78 µM
TGI (SK-MEL-28 melanoma): > 100 µM
GI50 (SNB-19 CNS): 3.45 µM
TGI (SNB-19 CNS): > 100 µM
GI50 (SF-268 CNS): 2.21 µM
TGI (SF-268 CNS): 14.3 µM
GI50 (DU-145 prostate): 0.53 µM
TGI (DU-145 prostate): 8.6 µM
GI50 (OVCAR-8 ovarian): 4.72 µM
TGI (OVCAR-8 ovarian): 30.2 µM
GI50 (MDA-MB-231 breast): 23.6 µM
TGI (MDA-MB-231 breast): > 100 µM
GI50 ([…]-0 renal): 2.94 µM
TGI (786-0 renal): 77.6 µM
GI50 (SF-539 CNS): 4.81 µM
TGI (SF-539 CNS): 20.4 µM
GI50 (K-562 leukemia): 0.705 µM
TGI (K-562 leukemia): > 100 µM
GI50 (NCI-H522 lung): 21.8 µM
TGI (NCI-H522 lung): > 100 µM
GI50 (KM12 colon): 7.51 µM
TGI (KM12 colon): > 100 µM
GI50 (MCF7 breast): 0.212 µM
TGI (MCF7 breast): > 100 µM
GI50 (HL-60(TB) leukemia): 0.171 µM
TGI (HL-60(TB) leukemia): 0.394 µM
GI50 (OVCAR-4 ovarian): 88.5 µM
TGI (OVCAR-4 ovarian): > 100 µM
GI50 (RXF 393 renal): 2.48 µM
TGI (RXF 393 renal): 87.2 µM
GI50 (T-47D breast): 7.65 µM
TGI (T-47D breast): > 100 µM
GI50 (UACC-62 melanoma): 3.25 µM
TGI (UACC-62 melanoma): 23 µM
GI50 (OVCAR-5 ovarian): 12 µM
TGI (OVCAR-5 ovarian): > 100 µM
GI50 (U251 glioblastoma): 4.87 µM
TGI (U251 glioblastoma): 79.7 µM
GI50 (CCRF-CEM leukemia): 0.234 µM
TGI (CCRF-CEM leukemia): 0.469 µM
GI50 (SK-MEL-2 melanoma): > 100 µM
TGI (SK-MEL-2 melanoma): > 100 µM
GI50 (NCI-H23 lung): 2.06 µM
TGI (NCI-H23 lung): 11.3 µM
GI50 (ACHN renal): 0.519 µM
TGI (ACHN renal): 2.95 µM
GI50 (CAKI-1 renal): 4.13 µM
TGI (CAKI-1 renal): > 100 µM
GI50 (NCI/ADR-RES ovarian): 3.88 µM
TGI (NCI/ADR-RES ovarian): 36.5 µM
GI50 (SK-OV-3 ovarian): 7.07 µM
TGI (SK-OV-3 ovarian): > 100 µM
GI50 (HT29 colon): 13.4 µM
TGI (HT29 colon): > 100 µM
GI50 (NCI-H322M lung): 66 µM
TGI (NCI-H322M lung): > 100 µM
GI50 (SNB-75 CNS): 15.9 µM
TGI (SNB-75 CNS): > 100 µM
GI50 (OVCAR-3 ovarian): 5.96 µM
TGI (OVCAR-3 ovarian): > 100 µM
GI50 (M14 melanoma): 2.42 µM
TGI (M14 melanoma): 16.1 µM
